Values of other authors in patent US20100028425A1, “PHARMACEUTICAL COMPOSITION OF ATOVAQUONE” (GLENMARK GENERICS LTD., priority 2008, published 2010).

O=C1C(O)=C([C@H]2CC[C@H](c3ccc(Cl)cc3)CC2)C(=O)c2ccccc21 [Atovaquone, trans 2-[4-(4-chlorophenyl)cyclohexyl]-3-hydroxy-1,4-naphthalenedione]
solubility in water: practically insoluble
